Biological target: T1, human serum albumin (HSA) in pooled normal serum (Homo sapiens, UniProt P02768)
T1 construct: from tissue; host or cells: pooled normal human serum
Assay: Cobalt binding assay, HSA in pooled normal serum incubated with individual unesterified fatty acids
Conditions: fatty acid:HSA molar ratios of about 8; most apparent with HSA in pooled normal serum
Description: The concentrations of twelve unesterified fatty acids were measured in vitro to determine if differences in individual fatty acid levels affect Co(II)—albumin interactions in the cobalt binding assay. The effect of individual fatty acid concentrations on HSA was evaluated in the presence of HSA from two different sources: (1) purified commercial HSA with defined buffer conditions, and (2) USA in pooled normal serum. The cobalt binding assays were performed after incubation of HSA with each unesterified fatty acid for 12 hours at room temperature. The concentrations of the individual FFAs were determined by measuring total FFAs levels before and after the addition of the specific FFAs to pooled normal serum. HSA concentrations were measured by standard colorimetric protein assays. Molar ratios were calculated from the concentration values determined for the individual specific FFAs with respect to the concentrations of HSA measured in each sample.

T1 sequence (P02768 25-609): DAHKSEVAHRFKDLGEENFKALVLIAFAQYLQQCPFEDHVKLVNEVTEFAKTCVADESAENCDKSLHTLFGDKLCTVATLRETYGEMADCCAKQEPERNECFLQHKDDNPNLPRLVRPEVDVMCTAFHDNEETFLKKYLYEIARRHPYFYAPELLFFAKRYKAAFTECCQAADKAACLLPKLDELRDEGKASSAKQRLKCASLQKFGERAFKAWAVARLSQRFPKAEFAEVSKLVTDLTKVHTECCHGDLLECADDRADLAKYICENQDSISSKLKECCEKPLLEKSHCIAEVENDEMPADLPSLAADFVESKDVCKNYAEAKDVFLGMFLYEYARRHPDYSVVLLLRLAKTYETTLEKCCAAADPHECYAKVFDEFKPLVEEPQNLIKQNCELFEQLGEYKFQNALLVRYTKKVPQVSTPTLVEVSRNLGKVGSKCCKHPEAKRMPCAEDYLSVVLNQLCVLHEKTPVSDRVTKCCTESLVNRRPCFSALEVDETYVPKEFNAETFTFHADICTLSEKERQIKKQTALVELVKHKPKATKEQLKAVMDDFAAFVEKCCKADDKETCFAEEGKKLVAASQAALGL

effect on the percent reduction of the Co[II]-HSA binding assay | SMILES
significant effect | CCCCCCCC/C=C\CCCCCCCC(=O)O [Oleic acid]
significant effect | CCCCC/C=C\C/C=C\C/C=C\C/C=C\CCCC(=O)O [Arachidonic acid]
